Source: ChEMBL document CHEMBL1157539, “Thousands of chemical starting points for antimalarial lead identification” (Nature, 2010)

system: Plasmodium falciparum; test: GSK_TCMDC: Inhibition of Plasmodium falciparum 3D7 in whole erythrocytes, using parasite LDH activity as an index of growth.; assay type: functional, organism-based; conditions: not given

Structure (SMILES) | XC50 [nM]
Cc1ccc2[nH]cc(C3CCN(CC4CCC(NC(=O)/C=C/c5ccc(Cl)c(Cl)c5)CC4)CC3)c2c1 (stereo unspecified) | 552

same assay, conditions: Plasmodium falciparum, 3D7

Structure (SMILES) | XC50 [nM]
CC(=O)Nc1ccc(C(=O)Nc2cccc(-c3ccc(-c4nc5cc(C(F)(F)F)ccc5[nH]4)s3)c2)cn1 | 126
CNC(=O)c1ccccc1Nc1cc(Nc2cc(OC)ccn2)ncc1Cl | 930
CC1(C)N=C(N)N=C(N)N1c1ccc(I)cc1 | 44.4
Cc1ccc(NC(=O)Nc2ccc(Br)cc2)cc1OCCN(C)C | 975
NC1CCN(c2nc(NCCc3ccc(O)cc3)nc(NCc3ccccc3-c3ccc(C(F)(F)F)cc3)n2)CC1 | 746
CC[C@H](C)CNC(=O)c1cncc(-c2ccc(CNCC3CNCCCO3)cc2)c1 (stereo partly specified) | 1020
O=C(c1ccc(O)c(-c2cc(Cl)cc(Cl)c2)c1)N1CCCC1 | 1000
Cc1onc(-c2ccccc2)c1-c1nc(NCCC(c2ccccc2)c2ccccc2)no1 | 835
Cc1cccc2nc(-c3ccc(-c4cccc(NC(=O)CCc5c[nH]cn5)c4)s3)[nH]c12 | 838
CCC(CC)C(CC(=O)NC(C)(C)CCc1ccccc1OC)Nc1ccc(C#N)c2ccccc12 (stereo unspecified) | 796
Cc1ccccc1C1CCN(C2CCC(NC(=O)/C=C/c3c(F)ccc(F)c3F)CC2)CC1 (stereo unspecified) | 1260
COc1cc(F)c2nccc([C@@H](O)CN3CCC(NCc4ccc5c(n4)NC(=O)CS5)CC3)c2c1 | 560
COc1ccc(Nc2nccc(N3CCC(NC(=O)c4cccc(NC(C)=O)c4)C3)n2)cc1 (stereo unspecified) | 994
Cc1ccccc1OCCCN1CCN(CC(c2ccc(F)cc2)N2CCN(C(C)C)CC2)CC1 (stereo unspecified) | 1410
O=C(/C=C/c1ccc(Cl)c(Cl)c1)N1CCC(NCc2ccc3[nH]ccc3c2)CC1 | 1020
CN(c1ccc(NC(=O)c2cccc(F)c2)cc1)C1CCCN(Cc2cccc(O)c2)C1 (stereo unspecified) | 1300
COc1ccc(NC2=C(c3ccccc3)C(=O)c3ccccc32)cn1 | 705
O=S(=O)(c1cccc(Cl)c1F)N(CCC(O)(C(F)(F)F)C(F)(F)F)Cc1cccc(O)c1 | 918
CN1CCN(c2ccnc3ccc(NC(=O)Nc4ccc(Br)cc4)cc23)CC1 | 92.5
OC(c1ccccc1)C1CN(CCC2CC3CCC2C3)CCC1(O)c1ccccc1 (stereo unspecified) | 346
Cc1[nH]c(C)c(-c2ccc(Oc3ccccc3)cc2)c(=O)c1Br | 46.8
CCn1c(C(C)C)cc2c3c(N)nc(N)nc3ccc21 | 12.4
Cc1cc2ccc(-c3cccc(CN)c3)cc2nc1N | 758
O=C(NCCCCN1CCC(c2ccc3c(c2OC(=O)c2ccc(NC(=O)c4ccc(Cl)cc4)cc2)CCCC3)CC1)c1ccc(NC(=O)c2ccc(Cl)cc2)cc1 | 203

Structure (SMILES) | XC50 [nM]
COc1ccc(N2C(N)=NC(N)=NC2(C)C)cc1OC | 311
CC(=O)C1(c2ccccc2)CCN(CCC2(c3ccc(Cl)c(Cl)c3)CN(C(=O)C3CCCCC3)CCO2)CC1 (stereo unspecified) | 314
CN(C)CCN(C)Cc1ccc(-c2cccc(NC(=O)c3ccc(Cl)cc3)c2)cc1 | 558
CCOc1ccc2c(N/N=C/c3cccc([N+](=O)[O-])c3)cc(C)nc2c1 | 224
CC(=O)N/N=C/[C@H](CCc1ccccc1)NC(=O)[C@H](CC(C)C)NC(=O)c1cccc(OCCN2CCOCC2)c1 | 236
COc1ccc2nccc([C@@H](O)CN3CCC(NCc4cc5oc(=O)n(C)c5cc4F)CC3)c2c1 | 661
c1ccc2[nH]c(-c3ccc(-c4ccc(CNCC5CCCO5)cc4)s3)nc2c1 (stereo unspecified) | 869
COc1ccc(NC(=O)[C@H](CC(C)C)Nc2cc(C)nc(NCCc3ccccc3OC)n2)cc1 | 988
O=[N+]([O-])c1cccc(-c2nc3cc(C4=NC5CCCCC5N4)ccc3[nH]2)c1 (stereo unspecified) | 195
O=c1ccc2ncc(Cl)c3c2n1CC3CN1CCC(NCc2cc3c(cn2)OCCO3)CC1 (stereo unspecified) | 961
CC(C)N1CCC(N(Cc2ccc(-c3ccc(C(F)(F)F)cc3)cc2)C(=O)Cn2c(CCc3cccc(F)c3F)cc(=O)c3c2CCC3)CC1 | 617
COc1cc(-c2nc(-c3ccc([N+](=O)[O-])cc3)c(-c3ccccc3)[nH]2)cc(OC)c1O | 830
CCCNc1ccc2nccc(CCN3CCC(NCc4ccc5c(c4)NC(=O)CS5)CC3)c2n1 | 580
CCN(CCCN1CCCCC1)c1cc(C)nc(Nc2ccc(C)cc2C(F)(F)F)n1 | 544
O=C(Nc1cccc(F)c1)N[C@H]1CCN(CCCCCNC(=O)C2CC2c2ccc(Cl)c(Cl)c2)C1 (stereo partly specified) | 991
Cc1cc(C)n(Cc2ccc(C(=O)NCC3CCCCC3)cc2)n1 | 957
N#Cc1ccc(Cn2ccc3c4c(N)nc(N)nc4ccc32)cc1 | 3.29
COc1ccc(CCNC(=O)c2cnc3c(c2)nc(-c2c[nH]c(-c4ccccc4)n2)n3CCc2c[nH]cn2)cc1 | 970
N=C(N)Nc1nc(-c2cccc(NC(=O)NCC(c3ccccc3)c3ccccc3)c2)cs1 | 791
Cn1ccnc1Sc1ncccc1[N+](=O)[O-] | 968
Cc1cc(-c2cccc(CNC3CCN(C)CC3)c2)ccc1S(=O)(=O)NCc1ccccc1 | 819
CC(C)(CNCCOc1ccc(Cl)cc1)c1nc(-c2ccnc(N)n2)c(-c2ccc(Cl)c(O)c2)[nH]1 | 834
Nc1c(Cl)cc(C(O)CNCCCCCOCCCc2ccc3ncccc3c2)cc1Cl (stereo unspecified) | 978
CCOc1ccc(-c2nonc2NC(=O)c2ccccc2OC)cc1OCC | 241

Structure (SMILES) | XC50 [nM]
O=C(Nc1ccc(Cl)cc1C(=O)Nc1ccncc1)c1ccc(Cl)cc1Cl | 611
COc1cc(F)c2nccc([C@@H](O)CN3CCC(NCc4nc5cccc(F)c5[nH]4)CC3)c2c1 | 847
O=C(CCCCCNC(=O)c1ccc(O)c(-c2cccc(C(F)(F)F)c2)c1)NCCN1CCCCC1 | 888
CCCc1cc(C)ccc1OCCCON1C(N)=NC(N)=NC1(C)C | 3.2
COc1ccc(CCN2CC[C@H](Nc3nc(-c4ccc(F)c(F)c4)nc4ccccc34)C2)cc1S(N)(=O)=O | 789
Cc1nc2nc(N)nc(N)c2c(C)c1Cc1cccs1 | 777
Cn1nc(-c2ccc(NC(=O)Nc3cc(C(F)(F)F)ccc3F)c(F)c2)c2cnc(NCCCn3ccnc3)nc21 | 736
COc1ccc(-c2ccc(CNC(=O)c3cccc(C#N)c3)c(F)c2)cc1CN1CCCN(C)CC1 | 804
COc1ccc(-c2cccc(CNC3CCN(CC4Cn5c(=O)ccc6ccc(F)c4c65)CC3)c2)cc1 (stereo unspecified) | 1090
CCc1cc(NC2CCN(C)CC2)nc(Nc2cccc(OC)c2)n1 | 856
Cc1ccccc1C(=O)NC(NC(=S)Nc1ccc([N+](=O)[O-])cc1)C(Cl)(Cl)Cl (stereo unspecified) | 745
CCC(=O)Nc1ccc(C(O)CN2CCC3(C=Cc4ccccc4O3)CC2)cc1 (stereo unspecified) | 1200
Cc1ccc2[nH]cc(C3CCN(CC4CCC(NC(=O)/C=C/c5ccc(Cl)c(Cl)c5)CC4)CC3)c2c1 (stereo unspecified) | 840
Cc1cc(CN2CC[C@H](NC(=O)c3ccc(Cl)c(Cl)c3)C2)ccc1OC1CCN(C)C1 (stereo partly specified) | 947
CC(=NNC(=N)N)c1ccc2c(ccc3ccccc32)c1 | 833
Cc1cccc2nc(-c3ccc(-c4ccc(NC(=O)Nc5cccc(C#N)c5)cc4)s3)[nH]c12 | 117
Cc1cccc(Nc2nccc(NCC(O)c3cccc(C(F)(F)F)c3)n2)c1 (stereo unspecified) | 514
Cc1cc(F)ccc1C1CCN(CCCCNC(=O)c2ccc(NC(=O)c3ccc(Cl)cc3)cc2)CC1 | 692
CCCCCC(C)C(C)c1cc(O)c2c(c1)OC(C)(C)CC2c1cc[n+]([O-])cc1 (stereo unspecified) | 499
CC(=O)CSC(C=Cc1ccc(N(C)C)cc1)=Nc1ccccc1 | 1120
COc1ccc(Nc2nccc(NCCNC(=O)c3cc4ccccc4s3)n2)cc1 | 1020
Cc1c(Br)cc2nc(-c3ccc(C(=O)NC4CCN(Cc5ccccc5)CC4)cc3)[nH]c2c1C | 332
O=C(C1CCN(C(c2ccccc2)c2ccc(Cl)c(Cl)c2)CC1)N1CC=CC1 (stereo unspecified) | 725
Cc1nc(NCc2ccccc2)cc(Nc2cc(NCc3ccccc3)nc(C)n2)n1 | 971

Structure (SMILES) | XC50 [nM]
Cc1cccc2nc(-c3cccc(-c4ccc(NC(=O)Cc5ccc[n+]([O-])c5)cc4)c3)[nH]c12 | 627
O=C(NC1CCC(CN2CCC(c3c[nH]c4ccccc34)CC2)CC1)c1ccc(-c2cc(C(F)(F)F)ccc2Cl)o1 (stereo unspecified) | 714
O=C(NCCCCN1CCC(c2ccc(C(F)(F)F)cc2C(F)(F)F)CC1)c1ccc(NC(=O)c2ccc(Cl)cc2)cc1 | 613
Fc1ccc2[nH]c(-c3cccc(-c4cccc(CN5CCN(c6cnccn6)CC5)c4)c3)nc2c1 | 1060
O=C(c1ccc(-c2ccc(-c3nc4ccccc4[nH]3)s2)cc1)N1CCCCC1CN1CCC(O)C1 (stereo unspecified) | 1050
CC(C)(C)OC(=O)N[C@@H](CS(=O)(=O)CCNC(=N)COCc1ccccc1)C(=O)OC(C)(C)C | 821
Cc1nc(C)c(CC(=O)Nc2cccc(-c3cccc(-c4nc5cc(C(F)(F)F)ccc5[nH]4)c3)c2)s1 | 827
CCN(Cc1cccc2ccccc12)c1ccc2nc(N)nc(N)c2c1 | 3.2
COc1cc(-c2nc(-c3ccncc3)c(-c3ccc4c(c3)CCC4=NO)[nH]2)ccc1OCCN1CCN(C)CC1 | 756
CC1(C)CCCN(C(=O)c2cccc(-n3nc(-c4ccc(Cl)cc4)cc3N)c2)C1 | 712
Cc1[nH]c(C)c(-c2ccc(-c3ccc(OC(F)(F)F)cc3)nc2)c(=O)c1Br | 249
COC(=O)c1ccc(C2OC3(C(=O)c4ccccc4C3=O)C(OC)=C2Cl)cc1C(C)=O (stereo unspecified) | 546
COc1ccc2nccc([C@@H](O)CN3CCC(NCc4cc5ccccc5o4)CC3)c2c1 | 658
O=C(NCC1CCN(CCN2CCC(c3cn(CCO)c4ccccc34)CC2)CC1)c1ccc(-c2ccc(C(F)(F)F)cc2)cc1 | 438
O=C(/C=C/c1ccc(Cl)c(Cl)c1)NCCCCCN1CCCC(CCCNC(=O)Nc2ccc(C(F)(F)F)cc2)C1 (stereo unspecified) | 525
O=S(=O)(NC1CCN(c2ccnc3ccccc23)C1)c1ccc(OC(F)(F)F)cc1 (stereo unspecified) | 1080
CCN(CC)CC(O)c1cc(-c2ccc(C)cc2)nc2c(C)cc(C)cc12 (stereo unspecified) | 171
Nc1ncc(-c2ccc(NC(=O)Nc3cc(C(F)(F)F)ccc3F)cc2)c(N)n1 | 719
COc1ccc(-c2nc(NC(=O)CSc3ccc([N+](=O)[O-])cc3)sc2C)cc1 | 136
Cc1[nH]c(C)c(-c2ccc(-c3cc(C(F)(F)F)cc(C(F)(F)F)c3)nc2)c(=O)c1Br | 81.4
CCCNCc1ccc(-c2ccc(CN(Cc3ccc4c(c3)OCO4)C(=O)Cc3cccnc3)cc2)nc1 | 862
CCCc1cn2c3c(cc(C(=O)N[C@@H](Cc4ccccc4)[C@H](O)CNC4CCOCC4)cc13)N(CC)S(=O)(=O)CC2 | 98.8
COc1ccc(CNC2CCN(C)CC2)cc1-c1ccc(S(=O)(=O)NC2CCC2)s1 | 733
